Patent US11331337B2, “Heparin and heparan sulphate oligosaccharides” (Agency for Science, Technology and Research, priority 2017, dated 2022)

How the values were obtained:
C2C12 cells = test: Alkaline phosphatase (ALP) activity assay in C2C12 cells; type: cell-based, murine; conditions: with BMP-2 100 ng/mL, 5 μg/mL, 3 days
Description: C2C12 cells were maintained as described above and seeded at 2×10^4 cells/cm2 in tissue culture treated 24-well plates. The cells were cultured in treatment media for 3 days, after which total protein was extracted and ALP activity was determined. Briefly, cells were washed with PBS and total protein extracted with RIPA buffer containing a protease inhibitor cocktail. Total protein concentration was determined using the BCA assay, then 7.5 μg of total protein per condition was combined with p-nitrophenylphosphate (Thermo-Fisher). […] Data represents mean±S.D. of three independent experiments.

BMP-2 = target: T1, BMP-2 (Homo sapiens, UniProt P12643); test: Surface plasmon resonance BMP-2 competitive binding assay; conditions: 10 μg/mL pre-incubated with BMP-2 25 nM, applied to heparin-coated SPR chip
T1 construct: purchased R&D Systems Inc. (U.S.A.)
T1 sequence (P12643 283-396): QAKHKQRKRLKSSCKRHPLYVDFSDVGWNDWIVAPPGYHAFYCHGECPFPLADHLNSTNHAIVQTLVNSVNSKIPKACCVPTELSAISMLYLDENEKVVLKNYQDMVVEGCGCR
Description: Briefly, 20 mg heparin was biotinylated at free amine groups using 8.6 μM NHS-biotin in dimethyl sulfoxide, after which excess unreacted NHS-biotin was removed by passing the sample through two 7 kDa molecular weight cut-off Zeba spin desalting columns. […] Heparin oligosaccharides were used at a concentration of 10 μg/mL in HBS-EP 0.1% buffer (HBS-EP with 0.1% (v/v) Tween-20). […] The response was measured as a function of time at 25° C. R.U.s for the heparin surface were determined by subtracting the R.U. of the control (uncoated) flow channel from those of the heparin-biotin-coated flow channel. Representative sensorgrams from all competitive binding experiments may be found in supplementary information (FIG. 1). […] Data constitutes the mean±S.D. of three independent experiments.

percentage of BMP-2 sequestered in solution (reduction in response units vs. BMP-2 alone) (BMP-2): able to bind BMP-2 with high affinity
Substance: dextran sulfate
BMP-2-induced ALP activity (C2C12 cells): inhibited BMP-2 bioactivity in vitro
